# Results: patent US8629144B2, “Polymorphic and hydrate forms, salts and process for preparing 6-{difluoro[6-(1-methyl-1H-pyrazol-4-yl)[1,2,4]triazolo[4,3-b]pyridazin-3-yl]methyl}quinoline” (Janssen Pharmaceutica NV, priority 2007, dated 2014)
# Like-named read-outs stand apart in the source and are kept apart here.
# Legend:
# [1] = rat, in vivo, po
# Description: (§1) Five male SD rats (225±11 g) were used per salt form. From each rat a complete plasma concentration time profile was obtained. Tap water and food were available ad libitum. The test involved salts of compound (I) with HBr, HCl, methanesulphonic acid (mesylate), ethanesulphonic acid (esylate) or p-toluenesulphonic acid (tosylate). The individual salts were dispersed in a 0.5% methocel suspension to a final concentration of 1 mg base eq./ml. The formulations were stored at room temperature.
# (§2) Administration was oral by gastric intubation: 10 ml/kg to obtain a dose of 10 mg base eq./kg.
# (§3) Blood samples were collected 30 min, 1, 2, 4, 7 and 24 h after dose administration.
# (§4) Blood was collected by multiple sampling from a tail vein into Multivette® 600 K3E tubes (Sarstedt). Samples were placed immediately on melting ice and plasma was obtained following centrifugation at 4° C. for 10 minutes at approximately 1900×g. All samples were shielded from daylight and stored at ≦−18° C. prior to analysis.
# (§5) A limited pharmacokinetic analysis was performed using WinNonlin™ Professional (Version 5.1). A non-compartmental analysis using the lin/log trapezoidal rule with lin/log interpolation was used for all data.
# [2] = Water adsorption (hygroscopicity) of salts of compound (I); assay type: physicochemical; settings: for Water adsorbed: dried 1 h at 25° C. under dry nitrogen flow
# Description: Free base of compound (I) (3 g; 7.95 mmol) was dissolved in absolute ethanol (40 mL) and heated to 78° C. An acid (HCl 6M in 2-propanol, 2.0 ml (12 mmol); HBr 48% in water, 0.98 mL (8.75 mmol); methane sulphonic acid, 917 mg (9.54 mmol); ethane sulphonic acid, 1.05 g (9.54 mmol) or p-toluene sulphonic acid monohydrate (1.66 g (8.75 mmol)) was added to the hot reaction mixture. The reaction mixture was allowed to cool to room temperature. The resulting precipitate was filtered off, washed with ethanol and dried under vacuum at 60° C.
# The obtained solids were analysed by acid titration, Karl-Fisher titration and HPLC. A physical characterisation was performed (DSC, TGA, XRD and IR, DVS).
# [3] = Water solubility of salts of compound (I); assay type: physicochemical; settings: 24 hours at 20° C.; for Measured pH: saturated solution in water; for Solubility: water, UV spectrometry
# Description: An excess of different salts of compound (I) was agitated with water during 24 hours at 20° C. Following filtration, the concentration of compound (I) in the solution was determined by UV spectrometry.
# [4] = Slurry conversions on Form III and Form III/hydrate (XRPD); assay type: physicochemical; set-up: key: Form III; hydrate
# Description: 20 mg Form III with 0.25 ml solvent (2-propanol; or 2-propanone/water (8/2, v/v); or methanol/water (8/2, v/v)) was deposited in a vial. For each solvent, 3 vials were prepared and stored each at different temperatures (4° C., RT, 40° C.) for two days. After storage, the slurry was spread on a paper filter, the solid fractions were collected and dried 2 hours at RT. In a further experiment, the Form III was seeded with the hydrate using methanol/water (8/2, v/v) as the solvent. The polymorphic composition was measured using XRPD.
# [5] = Thermal conversions in DSC oven (XRPD); assay type: physicochemical
# Description: Form III or hydrate form were thermally treated in a DSC oven (heating rate 10° C./min) up to selected temperatures (isotherm for 1 min) using an open sample pan. The selected temperatures are for Form III: 110° C. and 170° C.; and for hydrate form: 70° C., 110° C. and 170° C. The polymorphic composition of the obtained fractions was measured by XRPD. Table 12 summarises XRPD patterns in DSC treated Form III. Table 13 summarises XRPD patterns in DSC treated hydrate
# [6] = Aqueous solubility of Forms I, III and hydrate at different pH; assay type: physicochemical
# Description: Solubility of polymorph Forms I and III and the hydrate form of the compound of formula (I) was tested in aqueous conditions at different pH values.
# [7] = Absorption and plasma kinetics after oral administration of salts to rat; settings: male SD rats, oral 10 mg base eq./kg
# Description: as §1, §2, §3, §4, §5
smiles,measurement,setting,value
CCS(=O)(=O)O.Cn1cc(-c2ccc3nnc(C(F)(F)c4ccc5ncccc5c4)n3n2)cn1 [esylate salt],Tmax,[1],1.6 ± 0.5 h
same,t1/2 (4-24 h),[1],3.3 ± 0.4 h
same,Hygroscopicity,[2],hygroscopic
same,Water adsorbed,[2]; at high relative humidity,up to 34%
same,Measured pH,[3],pH = 2.1
same,Solubility,[3],0.025 g/100 ml H2O
"Cn1cc(-c2ccc3nnc(C(F)(F)c4ccc5ncccc5c4)n3n2)cn1 [Form III, 6-{difluoro[6-(1-methyl-1H-pyrazol-4-yl)[1,2,4]triazolo[4,3-b]pyridazin-3-yl]methyl}quinoline]",Polymorphic composition (XRPD) after slurry,"[4]; 2-propanol, 4° C., two days",III
same,Polymorphic composition (XRPD) after slurry,"[4]; 2-propanol, 40° C., two days",III
same,Polymorphic composition (XRPD) after slurry,"[4]; 2-propanol, RT, two days",III
same,Polymorphic composition (XRPD) after slurry,"[4]; 2-propanone/water (8/2, v/v), 4° C., two days",hy
same,Polymorphic composition (XRPD) after slurry,"[4]; 2-propanone/water (8/2, v/v), 40° C., two days",hy
same,Polymorphic composition (XRPD) after slurry,"[4]; 2-propanone/water (8/2, v/v), RT, two days",hy
same,Polymorphic composition (XRPD) after slurry,"[4]; methanol/water (8/2, v/v) containing hydrate seeds, 4° C.",III
same,Polymorphic composition (XRPD) after slurry,"[4]; methanol/water (8/2, v/v) containing hydrate seeds, 40° C.",III
same,Polymorphic composition (XRPD) after slurry,"[4]; methanol/water (8/2, v/v) containing hydrate seeds, RT",III
same,Polymorphic composition (XRPD) after slurry,"[4]; methanol/water (8/2, v/v), 4° C., two days",III
same,Polymorphic composition (XRPD) after slurry,"[4]; methanol/water (8/2, v/v), 40° C., two days",III
same,Polymorphic composition (XRPD) after slurry,"[4]; methanol/water (8/2, v/v), RT, two days",III
same,XRPD measured composition,"[5]; DSC treated Form III, up to 110° C.",Form III
same,XRPD measured composition,"[5]; DSC treated Form III, up to 170° C.",Form I
same,XRPD measured composition,[5]; starting Form III,Form III
same,Solubility,[6]; 0.01 HCl,78 µg/mL
same,Solubility,[6]; 0.1 HCl,970 µg/mL
same,Solubility,[6]; pH2,130 µg/mL
same,Solubility,[6]; pH4,3 µg/mL
same,Solubility,[6]; pH6,1 µg/mL
same,Solubility,[6]; pH8,1 µg/mL
same,Solubility,[6]; pH10,2 µg/mL
CS(=O)(=O)O.Cn1cc(-c2ccc3nnc(C(F)(F)c4ccc5ncccc5c4)n3n2)cn1 [mesylate salt],Tmax,[1],1.2 ± 0.4 h
same,t1/2 (4-24 h),[1],3.7 ± 0.6 h
same,Hygroscopicity,[2],hygroscopic
same,Water adsorbed,[2]; at high relative humidity,up to 4.5%
same,Measured pH,[3],pH = 1.9
same,Solubility,[3],0.047 g/100 ml H2O
Cc1ccc(S(=O)(=O)O)cc1.Cn1cc(-c2ccc3nnc(C(F)(F)c4ccc5ncccc5c4)n3n2)cn1 [tosylate salt],Hygroscopicity,[2],non-hygroscopic
same,Water adsorbed,[2]; depending on the atmospheric humidity,up to 0.2%
same,Measured pH,[3],pH = 2.1
same,Solubility,[3],0.023 g/100 ml H2O
same,"Plasma concentration, Mean ± SD","[7]; 0.5 hours, 0.5% methocel suspension (LLOQ given in ng/ml)",2193 ± 1031
same,"Plasma concentration, Mean ± SD",[7]; 1 hour,2998 ± 1349
same,"Plasma concentration, Mean ± SD",[7]; 2 hours,3274 ± 995
same,"Plasma concentration, Mean ± SD",[7]; 4 hours,2512 ± 960
same,"Plasma concentration, Mean ± SD",[7]; 7 hours,1625 ± 537
same,"Plasma concentration, Mean ± SD",[7]; 24 hours,47.9 ± 24.0
same,AUC0-24 h,[7]; Mean ± SD,24307 ± 7457 ng·h/mL
same,AUC0-inf,[7]; Mean ± SD,24558 ± 7503 ng·h/mL
same,Cmax,[7]; Mean ± SD,3380 ± 944 ng/mL
same,Tmax,[7]; Mean ± SD,2.0 ± 1.2 h
same,t1/2 (4-24 h),[7]; Mean ± SD,3.4 ± 0.6 h
